Laboratory results published in patent publication US10806746B2, “Di- and tri-cationic glycosylated antitumor ether lipids, L-gucosylated gaels and rhamnose-linked gaels as cytotoxic agents against epithelial cancer cells and cancer stem cells” (The University of Manitoba, priority 2014, dated 2020).
Where two headings read alike, the source gives them in different places.

Assays:
MDA-MB-231 cells = assay: MTS viability assay, MDA-MB-231 breast cancer cells; format: cell-based, human
Protocol: (§1) FIG. 2A. Effects of compounds 1-11 on the viability of MDA-MB231 cells. MDA-MB-231 cells were cultured in DMEM medium supplemented with 10% FBS. Equal numbers were dispersed into 96-well plates. After 24 h, the cells were incubated with compounds 1-11 (0-30 μM) for 48 h. At the end of the incubation, MTS reagent (20% vol/vol) was added and the plates were incubated for 1-4 h. The OD490 was read with a plate reader. Wells with media but no cells were treated in similar fashion and the values utilized as blank. The results represent the mean±standard deviation of 6 independent determinations.
as §1, with “2K.” for “2A.”, “1, 69-72” for “1-11”, “MDA-MB-231” for “MDA-MB231”, “1, 69-72” for “1-11 (0-30 μM)”
(§2) The cell lines were cultured from frozen stocks originally obtained from ATCC. MDA-MB-231, JIMT-1, DU145, U81, U251 cells were grown in DMEM medium. BT474, A2780s, A2780cp cells were grown in DMEM/F12 medium supplemented with 10% FBS. MiaPaCa2 was cultured in DMEM supplemented with 10% FBS and 2.5% horse serum. PC3 cells were cultured in F12K medium supplemented with 10% FBS. All the media were supplemented with penicillin/streptomycin.
(§3) The effects of the GAELs on the viability of the various epithelial cancer cell lines was determined as previously described. Briefly, equal numbers of the cells were dispersed into 96-well plates. After 24 h, the cells were incubated with the compounds (0-30 μM) for 48 h. At the end of the incubation, MTS reagent (20% vol/vol) was added and the plates were incubated for 1-4 h. The OD490 was read with a plate reader. Wells with media but no cells were treated in similar fashion and the values utilized as blank. The results represent the mean±standard deviation of 6 independent determinations.

PC3 cells = assay: MTS viability assay, PC3 prostate cancer cells; format: cell-based, human
Protocol: as §1, with “2E.” for “2A.”, “PC3” for “MDA-MB231”, “PC3” for “MDA-MB-231”, “F12K” for “DMEM”
as §2, §3

BT-474 cells = assay: MTS viability assay, BT-474 breast cancer cells; format: cell-based, human
Protocol: as §1, with “2C.” for “2A.”, “BT-474” for “MDA-MB231”, “BT-474” for “MDA-MB-231”, “DMEM/F12” for “DMEM”
as §2, §3

[1] = tested on: EOC 216H primary ovarian cancer cells; assay: MTS viability, primary epithelial ovarian cancer cells EOC 216H; format: cell-based; conditions: Homo sapiens
Protocol: (§4) FIG. 2L to 2N. Effects of compounds 1, 56 or 69 on the viability of primary epithelial ovarian cancer cells grown as adherent and spheroid cultures. EOC cells were isolated from the ascites of ovarian cancer patients. Cells were seeded in regular 96-well plates and grown as adherent cultures. 24 h after seeding the cells were incubated with compounds 1, 56, or 69 for 48 h and the viability of the cells were determined with the MTS assay. Spheroid cultures were obtained by seeding the cells in ultra-low adhesion 96-well plates for 3 days. The spheroids were incubated with compounds 1, 56 or 69 for 3 days. At the end of the incubations, MTS reagent (20% vol/vol) was added and the plates were incubated for 1-4 h. The OD490 was read with a plate reader. Wells with media but no cells were treated in similar fashion and the values utilized as blank. The results represent the mean±standard deviation of 6 independent determinations.
(§5) 4.3.1.2. Isolation of primary epithelial ovarian cancer cells (EOC) from ascites fluid of ovarian cancer patients. The isolation of EOC cells from the ascites fluid of ovarian cancer patients was performed as described by Shepherd et al 2007, Nature protocols 1, 2643-2649). The cells were grown in DMEM/F12 supplemented with 10% FBS medium. 4.3.2. Isolation of breast cancer stem cells from BT-474, prostate cancer stem cells from DU145, and ovarian cancer stem cells from A2780cp cell lines and determination of the effect of GAELs on the viability of the cancer stem cells.

[2] = tested on: EOC216B primary ovarian cancer cells; assay: MTS viability, primary epithelial ovarian cancer cells EOC216B; format: cell-based; conditions: Homo sapiens
Protocol: as §4, §5

[3] = tested on: EOC258 primary ovarian cancer cells; assay: MTS viability, primary epithelial ovarian cancer cells EOC258; format: cell-based; conditions: Homo sapiens
Protocol: as §4, §5

[4] = tested on: EOC260 primary ovarian cancer cells; assay: MTS viability, primary epithelial ovarian cancer cells EOC260; format: cell-based; conditions: Homo sapiens; adherent culture, 48 h
Protocol: as §4
4.3.1.2. Isolation of primary epithelial ovarian cancer cells (EOC) from ascites fluid of ovarian cancer patients. The isolation of EOC cells from the ascites fluid of ovarian cancer patients was performed as described by Shepherd et al 2007, Nature protocols 1, 2643-2649). The cells were grown in DMEM/F12 supplemented with 10% FBS medium. 4.3.2. […]

[5] = Homo sapiens, MDA-MB-231, Table 5, 48 h, read-out: CC50 MDA-MB-231
[6] = Homo sapiens, MDA-MB-231, Table 5, 48 h, read-out: CC90 MDA-MB-231
[7] = Homo sapiens, PC-3, Table 5, 48 h, MTS, read-out: CC50 PC3
[8] = Homo sapiens, PC-3, Table 5, 48 h, MTS, read-out: CC90 PC3
[9] = adherent culture, 48 h, read-out: CC50 values EOC 216H Adherent
[10] = spheroid culture, 3 days, read-out: CC50 values EOC 216H Spheroid
[11] = 72 h, spheroid culture, 3 days, read-out: CC50 values EOC216B Spheroid
[12] = adherent culture, 48 h, read-out: CC50 values EOC216B Adherent
[13] = 72 h, spheroid culture, 3 days, read-out: CC50 values EOC258 Spheroid
[14] = adherent culture, 48 h, read-out: CC50 values EOC258 Adherent
[15] = Table 1A, 48 h, read-out: CC50 values MD 231
[16] = Table 1B, 48 h, read-out: CC90 values MD 231
[17] = Table 1A, 48 h, MTS, read-out: CC50 values PC3
[18] = Table 1B, 48 h, MTS, read-out: CC90 values PC3
[19] = Table 1A, 48 h, MTS, read-out: CC50 values BT474
[20] = Table 1B, 48 h, MTS, read-out: CC90 values BT474

SMILES	CC50 (MDA-MB-231 cells; [5]) [µM]	CC90 (MDA-MB-231 cells; [6]) [µM]	CC50 (PC3 cells; [7]) [µM]	CC90 (PC3 cells; [8]) [µM]	CC50 [1, 9] [µM]	CC50 [1, 10] [µM]	CC50 [2, 11] [µM]	CC50 [2, 12] [µM]	CC50 [3, 13] [µM]	CC50 [3, 14] [µM]	CC50 [4] [µM]	CC50 (MDA-MB-231 cells; [15]) [µM]	CC90 (MDA-MB-231 cells; [16]) [µM]	CC50 (PC3 cells; [17]) [µM]	CC90 (PC3 cells; [18]) [µM]	CC50 (BT-474 cells; [19]) [µM]	CC90 (BT-474 cells; [20]) [µM]	further results
CCCCCCCCCCCCCCCCOC[C@H](COC1O[C@H](CNCCCCCCCCCCCCN)[C@@H](O)[C@H](O)[C@H]1N)OC (some centres unmarked) [Compound 73, 1-O-Hexadecyl-2-O-methyl-3-O-[6′-N-(12-aminododecyl)-2′,6′-diamino-2′,6′-dideoxy-glucopyranoside]-sn-glycerol]	–	–	–	–	–	–	–	–	–	–	–	–	–	–	–	–	–	CC50 (MDA-MB-231 cells; Table 6, 48 h, read-out: MB-MDA-231 CC50): 1.5 µM; CC90 (MDA-MB-231 cells; Table 6, 48 h, read-out: MB-MDA-231 CC90): 3.8 µM; CC50 (PC3 cells; Table 6, 48 h, MTS, read-out: PC3 CC50): 2 µM; CC90 (PC3 cells; Table 6, 48 h, MTS, read-out: PC3 CC90): 3.2 µM; CC50 (BT-474 cells; Table 6, 48 h, MTS, read-out: BT474 CC50): 1.6 µM; CC90 (BT-474 cells; Table 6, 48 h, MTS, read-out: BT474 CC90): 4.2 µM
CCCCCCCCCCCCCCCCOCC(CO[C@@H]1OC(CO)[C@H](O)[C@H](O)C1N)OC (some centres unmarked) [Compound 69]	11	17	12.5	16	1.02	1.5	1.25	0.56	1.2	1.4	0.3	–	–	–	–	–	–	CC50 (MDA-MB-231 cells; Homo sapiens, MDA-MB-231, Table 2A, 48 h, read-out: CC50 values MDA-MB-231): 11 µM; CC90 (MDA-MB-231 cells; Homo sapiens, MDA-MB-231, Table 2B, 48 h, read-out: CC90 values MDA-MB-231): 17 µM; CC50 (PC3 cells; Homo sapiens, PC-3, Table 2A, 48 h, MTS, read-out: CC50 values PC3): 12.5 µM; CC90 (PC3 cells; Homo sapiens, PC-3, Table 2B, 48 h, MTS, read-out: CC90 values PC3): 16 µM
CCCCCCCCCCCCCCCCOCCCO[C@@H]1O[C@H](CN)[C@@H](O)[C@H](O)[C@H]1N [Compound 4, 1-O-Hexadecyl-2-deoxy-3-O-(2′6′-diamino-2′,6′-dideoxy-β-D-glucopyranosyl)-sn-glycerol]	–	–	–	–	–	–	–	–	–	–	–	4.5	7	8	14	8.5	17.5	–
CCCCCCCCCCCCCCCCOC[C@H](CO[C@H]1O[C@H](CN)[C@@H](O)[C@H](O)[C@H]1N)OC [Compound 1, 1-O-Hexadecyl-2-O-methyl-3-O-(2′,6′-diamino-2′,6′-dideoxy-α-D-glucopyranosyl)-sn-glycerol]	3	4.5	3.5	6	0.15	0.21	0.6	0.24	0.6	0.3	0.2	–	–	–	–	–	–	CC50 (MDA-MB-231 cells; Homo sapiens, MDA-MB-231, Table 1A, 48 h, read-out: CC50 values MD 231): 3 µM; CC90 (MDA-MB-231 cells; Homo sapiens, MDA-MB-231, Table 1B, 48 h, read-out: CC90 values MD 231): 4.5 µM; CC50 (PC3 cells; Homo sapiens, PC-3, Table 1A, 48 h, MTS, read-out: CC50 values PC3): 3.5 µM; CC90 (PC3 cells; Homo sapiens, PC-3, Table 1B, 48 h, MTS, read-out: CC90 values PC3): 6 µM; CC50 (BT-474 cells; Homo sapiens, BT-474, Table 1A, 48 h, MTS, read-out: CC50 values BT474): 7.5 µM; CC90 (BT-474 cells; Homo sapiens, BT-474, Table 1B, 48 h, MTS, read-out: CC90 values BT474): 9.5 µM; CC50 (BT-474 cells; Homo sapiens, BT-474, Table 5, 48 h, MTS, read-out: CC50 B1474): 7.5 µM
CCCCCCCCCCCCCCCCOC[C@@H](CN=[N+]=[N-])O[C@@H]1O[C@H](CO)[C@@H](O)[C@H](O)[C@H]1N [Compound 6, 1-O-Hexadecyloxy-2R-(2′-amino-2′-deoxy-β-D-glucopyranosyl)-3-azido glycerol]	–	–	–	–	–	–	–	–	–	–	–	11	15	6	15	22	28	CC50 (PC3 cells; read-out: CC50 against PC-3 cell lines): 6 µM; CC50 (BT-474 cells; read-out: CC50 against BT 474 cell lines): 22 µM
CCCCCCCCCCCCCCCCOCC(CO[C@@H]1O[C@H](CN)[C@@H](O)[C@H](O)[C@H]1N)O[C@@H]1O[C@H](CN)[C@@H](O)[C@H](O)[C@H]1N (stereo partly drawn) [Compound 5, 1-O-Hexadecyloxy-2S/R, 3-di(-2′,6′-diamino-2′, 6′-dideoxy-β-D-glucopyranosyl)-glycerol]	–	–	–	–	–	–	–	–	–	–	–	> 30	> 30	> 30	> 30	> 30	> 30	–
